The assay concerns TG3 immunoreactivity in OKA treated MSN1a cells. Kind of assay: MSN1a cell culture model, ELISA with TG3 antibody, okadaic acid treated cells. The class given is cell-based, human. As to conditions: 1 μM OKA, 2 hrs at 37° C., read-out: IC50 for inhibition of TG3 immunoreactivity in OKA treated MSN1a cells. In outline: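 Human MSN1a neuroblastoma cells (2×10^4/well) in KRH pH 7.4 were exposed 2 h at 37 °C to 1 μM okadaic acid plus 0–64 μM compound (0.26% DMSO final). Lysates were coated onto ELISA plates and probed with TG3 and an alkaline phosphatase secondary. Absorbance was read at 405 nm with p-nitrophenyl phosphate substrate.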
Background: In an ELISA, binding on a coated surface is turned into a signal by an enzyme label.

The term IC50 denotes the concentration that gives 50% inhibition. For the compound `Cl.Cl.O=C(CCN1CCN(Cc2ccccc2)CC1)c1ccc(F)c2ccccc12` [Example 21, 1-(4″-Fluoronaphth-1″-yl)-3-(4′-benzyl-1′-piperazinyl)-1-propanone dihydrochloride], the IC50 came out at 6.6 µM.
